Consider 1 compound from patent US6093838A, “Amines substituted with a dihydro-benzofuranyl or with a dihydro-isobenzofuranyl group, an aryl or heteroaryl group and an alkyl group, having retinoid-like biological activity” (Allergan Sales, Inc., priority 1999, dated 2000).

For one assay, the target named is T1, RARα (Homo sapiens, UniProt P10276).
T1 sequence (P10276 1-462): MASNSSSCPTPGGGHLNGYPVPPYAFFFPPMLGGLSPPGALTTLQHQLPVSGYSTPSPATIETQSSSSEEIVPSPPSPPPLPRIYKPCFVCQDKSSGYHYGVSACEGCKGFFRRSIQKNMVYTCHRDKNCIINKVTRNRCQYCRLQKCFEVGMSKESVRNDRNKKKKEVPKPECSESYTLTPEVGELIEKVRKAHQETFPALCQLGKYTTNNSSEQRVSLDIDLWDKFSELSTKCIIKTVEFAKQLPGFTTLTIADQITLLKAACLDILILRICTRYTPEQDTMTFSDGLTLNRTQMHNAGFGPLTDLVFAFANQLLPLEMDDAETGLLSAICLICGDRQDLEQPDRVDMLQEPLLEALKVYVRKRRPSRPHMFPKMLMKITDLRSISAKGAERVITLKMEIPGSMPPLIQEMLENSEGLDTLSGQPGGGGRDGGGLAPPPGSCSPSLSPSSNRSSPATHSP
Description: ligand binding assay, RARα. The settings on record: read-out: RAR Bind. Ki α. The source says:
(§1) Other assays described below, measure the ability of the compounds of the present invention to bind to, and/or activate various retinoid receptor subtypes. When in these assays a compound binds to a given receptor subtype and activates the transcription of a reporter gene through that subtype, then the compound is considered an agonist of that receptor subtype. […] In the below described assays the ability of the compounds to bind to RARα, RARβ, RARγ, RXRα, RXRβ and RXRγ receptors, and the ability or inability of the compounds to activate transcription of a reporter gene through these receptor subtypes can be tested. […] However, some of the compounds of the invention may behave as retinoid antagonists or partial antagonists and/or as inverse agonists. Because of the complex distribution of the different retinoid receptors in various organs of the mammalian body partial agonists and partial antagonists and compounds which have the characteristics of both may lend themselves to particularly useful therapeutic applications and may avoid serious side effects of conventional retinoid drugs.
(§2) A holoreceptor transactivation assay and a ligand binding assay which measure the antagonist/agonist like activity of the compounds of the invention, or their ability to bind to the several retinoid receptor subtypes, respectively, are described in published PCT Application No. WO WO93/11755 (particularly on pages 30-33 and 37-41) published on Jun. 24, 1993, the specification of which is also incorporated herein by reference. A detailed experimental procedure for holoreceptor transactivations has been described by Heyman et al. Cell 68, 397-406, (1992); Allegretto et al. J. Biol. Chem. 268, 26625-26633, and Mangelsdorf et al. The Retinoids: Biology, Chemistry and Medicine, pp 319-349, Raven Press Ltd., New York, which are expressly incorporated herein by reference. The results obtained in this assay are expressed in EC50 numbers, as they are also in the chimeric receptor transactivation assay. The results of ligand binding assay are expressed in Kd numbers. (See Cheng et al. Biochemical Pharmacology Vol. 22 pp 3099-3108, expressly incorporated herein by reference.)
(§3) Table 1 discloses the activity of certain exemplary compounds of the invention in the above-described chimeric receptor transactivation assay, holoreceptor transactivation assay and a ligand binding assays. Particularly, the transactivation data pertaining to RAR receptors were obtained in the chimeric assay, and the data pertaining to transactivation of RXR receptors were obtained in the holoreceptor transactivation assay.

Another assay addresses T2, RXRα (Homo sapiens, UniProt P19793).
T2 construct: expressed in transfected cells
T2 sequence (P19793 1-462): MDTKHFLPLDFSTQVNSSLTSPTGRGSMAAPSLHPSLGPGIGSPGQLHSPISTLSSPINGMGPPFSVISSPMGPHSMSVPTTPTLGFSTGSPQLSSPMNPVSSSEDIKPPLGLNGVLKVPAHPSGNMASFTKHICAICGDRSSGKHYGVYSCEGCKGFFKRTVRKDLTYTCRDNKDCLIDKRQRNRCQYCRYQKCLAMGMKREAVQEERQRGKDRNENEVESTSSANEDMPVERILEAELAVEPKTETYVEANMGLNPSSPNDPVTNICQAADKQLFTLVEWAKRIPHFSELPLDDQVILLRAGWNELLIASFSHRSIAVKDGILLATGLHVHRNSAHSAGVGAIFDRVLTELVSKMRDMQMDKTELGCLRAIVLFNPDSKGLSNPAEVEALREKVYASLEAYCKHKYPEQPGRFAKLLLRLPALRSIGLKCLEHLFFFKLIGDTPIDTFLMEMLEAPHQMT
The assay can be described thus: holoreceptor transactivation assay, RXRα. The class given is cell-based.
Text: as §1, §2, §3

A further assay concerns the target T3, RXRγ (Mus musculus, UniProt P28705).
T3 construct: expressed in transfected cells
T3 sequence (P28705 1-463): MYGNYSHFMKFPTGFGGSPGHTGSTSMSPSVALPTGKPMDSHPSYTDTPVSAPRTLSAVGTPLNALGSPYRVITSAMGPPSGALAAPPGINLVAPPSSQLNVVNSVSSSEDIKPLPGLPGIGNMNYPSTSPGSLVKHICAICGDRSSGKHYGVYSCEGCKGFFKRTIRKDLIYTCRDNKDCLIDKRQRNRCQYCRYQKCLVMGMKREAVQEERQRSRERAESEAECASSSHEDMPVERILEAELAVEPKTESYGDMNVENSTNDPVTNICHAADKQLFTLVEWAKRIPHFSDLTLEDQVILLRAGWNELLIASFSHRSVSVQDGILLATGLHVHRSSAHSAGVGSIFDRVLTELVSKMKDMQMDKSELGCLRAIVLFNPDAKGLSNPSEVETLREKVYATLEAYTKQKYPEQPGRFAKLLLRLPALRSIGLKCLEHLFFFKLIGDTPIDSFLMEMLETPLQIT
The assay can be described thus: holoreceptor transactivation assay, RXRγ. In kind it is cell-based.
Text: as §1, §2, §3

The target in another assay is T4, RARγ (Homo sapiens, UniProt P13631).
T4 sequence (P13631 1-454): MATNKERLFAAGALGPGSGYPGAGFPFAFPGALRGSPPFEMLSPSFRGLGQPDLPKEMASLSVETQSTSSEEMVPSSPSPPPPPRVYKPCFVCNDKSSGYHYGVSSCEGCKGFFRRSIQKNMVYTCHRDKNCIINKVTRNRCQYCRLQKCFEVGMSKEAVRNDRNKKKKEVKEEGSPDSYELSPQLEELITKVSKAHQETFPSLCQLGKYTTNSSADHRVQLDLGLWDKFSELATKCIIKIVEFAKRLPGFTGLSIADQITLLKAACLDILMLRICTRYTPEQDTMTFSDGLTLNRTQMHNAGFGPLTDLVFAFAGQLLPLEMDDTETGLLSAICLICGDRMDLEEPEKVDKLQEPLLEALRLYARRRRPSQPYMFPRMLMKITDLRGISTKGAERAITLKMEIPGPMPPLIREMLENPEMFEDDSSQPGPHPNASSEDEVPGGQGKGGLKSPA
Description: ligand binding assay, RARγ. The settings on record: read-out: RAR Bind. Ki γ.
Text: as §1, §2, §3

For the compound `CC(C)N(c1ccc(C(=O)O)cc1)c1ccc2c(c1)C(C)(C)OC2(C)C` [Compound 87, 4-[i-Propyl-(1,1,3,3-tetramethyl-1,3-dihydro-isobenzofuran-5-yl)-amino]-benzoic acid], the Ki at RARα and on RARγ was more than 10000 nM each time. Also, the EC50 at RXRα (holoreceptor transactivation, RXRα, read-out: RXR Trans. EC50 α) came out at 57 nM; at RXRγ (holoreceptor transactivation, RXRγ, read-out: RXR Trans. EC50 γ) it was 765 nM. Also, the Emax at RXRα (relative to 10^-6 M cyclopropyl penta-2,4-dienoic acid reference (RXRs), read-out: % efficacy (RXRα transactivation)) worked out at 115%; on RXRγ (relative to 10^-6 M cyclopropyl penta-2,4-dienoic acid reference (RXRs), read-out: % efficacy (RXRγ transactivation)), 134%.
